Experimental data published in patent publication US20230295201A1 (Gilead Sciences, Inc., priority 2020, published 2023).
pEC50: −log10 of the molar value. Where two headings read alike, the source gives them in different places.

Columns and labels:
RSV strain A2 = assay: RSV HEp-2 EC50 (infectious cytopathic cell protection assay); format: cell-based; conditions: human respiratory syncytial virus, HEp-2, 96 h, read-out: RSV HEp-2 EC50
Procedure, shortened: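 HEp-2 cells mixed with titered RSV A2 at 50,000 cells/ml were added to plates holding 3-fold serial compound dilutions in DMSO, then incubated 4 days at 37° C. Cytoprotection was read as cell viability by CellTiter-Glo luminescence and converted to percent inhibition against 0% and 100% inhibition controls.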

RSV A2 = assay: RSV NHBE EC50 (RSV A2 antiviral assay in normal human bronchial epithelial cells); format: cell-based; conditions: human respiratory syncytial virus, NHBE, 96 h, read-out: RSV NHBE EC50
HRV16 = HRV16 HELA EC50 (cytopathic effect in H1-HeLa cells); format: cell-based; conditions: 96 h, read-out: HRV16 HELA EC50
Procedure, shortened: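 H1-HeLa cells seeded one day before, given 3-fold serial compound dilutions in triplicate just prior to infection with pre-titrated virus. Incubated 96 h at 33 °C/5% CO2; protection from cytopathic effect read as viability by CellTiter-Glo luminescence, normalised to infected untreated (0%) and uninfected (100%) controls.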

DENV2 replicon = assay: DENV-2 Huh-7 Rep EC50 (replicon luminescence); format: cell-based; conditions: Dengue virus, DENV2, Huh-7, 48 h, read-out: DENV-2 Huh-7 Rep EC50
Procedure, shortened: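 Huh-7 cells carrying a DENV2 replicon, 5,000 cells/well, were incubated with dosed compounds for 48 h at 37° C. EnduRen live-cell substrate was added 1.5 h before luminescence reading. EC50 came from dose-response against DMSO-only wells.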

[1] = HEp-2 CC50 (cytotoxicity, Cell-Titer Glo); format: cell-based; conditions: human; uninfected HEp-2 cells, 4-5 days
Protocol: The same protocol as for the determination of antiviral activity is used for the measurement of compound cytotoxicity except that the cells are not infected with RSV. Instead, an uninfected cell mixture at the same density is added at 20 ul/well to plates containing prediluted compounds, also at 100 nL/sample. Assay plates are then incubated for 4 days followed by a cell viability test using the same CellTiter Glo reagent addition and measurement of luminescent readouts.

in vitro [2] = conditions: human
Protocol: (§1) HEp-2 (1.5×10^3 cells/well) and MT-4 (2×10^3 cells/well) cells were plated in 384-well plates and incubated with the appropriate medium containing 3-fold serially diluted compound ranging from 15 nM to 100,000 nM. Cells were cultured for 4-5 days at 37° C. Following the incubation, the cells were allowed to equilibrate to 25° C., and cell viability was determined by adding Cell-Titer Glo viability reagent. The mixture was incubated for 10 min, and the luminescence signal was quantified using an Envision plate reader. Untreated cell and cells treated at 2 μM puromycin (Sigma, St. Louis, MO) serve as 100% and 0% cell viability control, respectively.

in vitro [3] = conditions: human; remark: listed apart in the source
HELA CC50 (cytotoxicity) = conditions: human, HeLa cells
[4] = MT4 CC50 (cytotoxicity, Cell-Titer Glo); conditions: human
Protocol: as §1

Structure (SMILES)	pEC50 (RSV strain A2; HEp-2 cells, RSV A2, 4 days)	pEC50 (RSV A2; NHBE cells, RSV A2, 4 days)	pEC50 (HRV16; H1-HeLa cells, 33° C.)	pEC50 (DENV2 replicon; Huh-7 replicon cells, 48 hours)	CC50 [1] [µM]	CC50 (in vitro [2]) [µM]	CC50 (in vitro [3]) [µM]	pEC50 (RSV strain A2)	pEC50 (RSV A2)	pEC50 (HRV16)	pEC50 (DENV2 replicon)	CC50 (HELA CC50 (cytotoxicity)) [µM]	CC50 [4] [µM]
CC(C)OC(=O)[C@H](C)N[P@](=O)(OC[C@@]1(C#N)O[C@@H](c2ccc3c(N)ncnn23)[C@H](OC(=O)C(C)C)[C@@H]1O)Oc1ccccc1 (single isomer, unassigned) [Example 240]	6.78	6.72	5.88	4.98	> 50	> 50	> 50	–	–	–	–	–	–
CCOC(=O)c1ccccc1OP1(=O)OC[C@@]2(C#N)O[C@@H](c3ccc4c(N)ncnn34)[C@H](OC(=O)CC)[C@@H]2O1 (some centres unmarked) [Example 230]	–	–	–	–	> 50	–	–	5.78	< 5.30	4.94	< 4.30	> 50	> 50
